In PMC6704644 (Journal of Experimental & Clinical Cancer Research : CR, 2019) one finds IC50 data, which are given here for 1 molecule.

In the assay the target is T1, mPGES-1 (microsomal prostaglandin E synthase-1) (Homo sapiens, UniProt O14684).
T1 construct: gene PTGES
T1 sequence (O14684 1-152): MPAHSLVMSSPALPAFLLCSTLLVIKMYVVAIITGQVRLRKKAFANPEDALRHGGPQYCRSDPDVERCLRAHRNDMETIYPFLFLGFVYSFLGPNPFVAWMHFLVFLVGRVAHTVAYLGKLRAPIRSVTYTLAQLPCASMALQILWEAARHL
The experiment in a line: CETSA in U87 cell lysates (temperature- and dose-dependent), plus enzyme activity inhibition IC50. Type of assay: cell-based.

Usually IC50 stands for the midpoint of a concentration-inhibition curve.

Consider `O=C(/C=C/c1ccc(O)cc1)c1ccc(O)cc1O` [ISL, isoliquiritigenin], for which the IC50 was determined as 17.4 µM.
